Measurements reported in patent publication US12029739B2, “SHP2 inhibitor and use thereof” (KANAPH THERAPEUTICS INC., priority 2021, dated 2024).
pIC50: −log10 of the molar value.

Legend:
SHP2 (full length) = target: T1, SHP2 (full length) (Homo sapiens, UniProt Q06124); assay: Phosphatase assay (PTPase assay) with DiFMUP substrate; format: biochemical; conditions: SHP2 activated with SHP2 activating peptide; DiFMUP 80 μM, 2 hours; fluorescence; read-out: IC50 (PTPase aS say)
T1 construct: SHP2 (full length, diluted to 100 pM final concentration in reaction buffer, BPS bioscience, US); purchased BPS bioscience, US
T1 sequence (Q06124 1-593): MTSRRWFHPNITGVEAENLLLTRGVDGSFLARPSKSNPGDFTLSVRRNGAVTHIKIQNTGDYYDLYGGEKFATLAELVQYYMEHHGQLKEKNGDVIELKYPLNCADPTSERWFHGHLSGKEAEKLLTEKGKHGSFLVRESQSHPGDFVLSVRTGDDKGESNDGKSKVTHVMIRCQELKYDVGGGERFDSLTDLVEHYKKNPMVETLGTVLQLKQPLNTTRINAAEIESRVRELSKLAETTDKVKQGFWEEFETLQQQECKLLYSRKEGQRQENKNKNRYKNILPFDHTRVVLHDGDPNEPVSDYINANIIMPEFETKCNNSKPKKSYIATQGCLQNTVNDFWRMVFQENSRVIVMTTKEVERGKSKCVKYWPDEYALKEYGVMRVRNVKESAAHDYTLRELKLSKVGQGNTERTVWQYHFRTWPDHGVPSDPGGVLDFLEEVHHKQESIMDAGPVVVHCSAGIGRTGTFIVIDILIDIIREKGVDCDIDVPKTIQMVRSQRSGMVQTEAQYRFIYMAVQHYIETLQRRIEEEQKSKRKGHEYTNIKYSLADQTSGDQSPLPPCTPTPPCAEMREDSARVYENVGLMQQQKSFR

[1] = test system: phospho-ERK in MIA PaCa2 or H358 cells; assay: Phospho-ERK assay (AlphaLisa); format: cell-based; conditions: 1.5 h, MIA PaCa2 or H358 cells, compound incubated 1.5 hours; read-out: IC50 (p-ERK)

Structure (SMILES)	pIC50 (SHP2 (full length))	pIC50 [1]
N[C@H]1c2scnc2CC12CCN(c1cnc(Sc3ccc4ncn(CC5CCOCC5)c(=O)c4c3Cl)cn1)CC2 [Example 148, 6-[5-[(6R)-6-aminospiro[4,6-dihydrocyclopenta[d]thiazole-5,4′piperidin]1′-yl]-pyrazin-2-yl]sulfanyl-5-chloro-3-(tetrahydropyran-4-ylmethyl)quinazolin-4-one]	7.00 to 8.52	5.82 to 7.35
N[C@@H]1c2scnc2CC12CCN(c1cnc(Sc3ccc4ncn(CC5CCOCC5)c(=O)c4c3Cl)cn1)CC2 [Example 149]	> 8.52	> 7.35
COCCn1cnc2ccc(Sc3cnc(N4CCC5(CC4)Cc4scnc4[C@@H]5N)cn3)c(Cl)c2c1=O [Example 150, 6-[5-[(4R)-4-aminospiro[4,6-dihydrocyclopenta[d]thiazole-5,4′-piperidin]-1′-yl]pyrazin-2-yl]sulfanyl-5-chloro-3-(2-methoxyethyl)quinazolin-4-one]	> 8.52	5.82 to 7.35
COCCn1cnc2ccc(Sc3cnc(N4CCC5(CC4)Cc4scnc4[C@H]5N)cn3)c(Cl)c2c1=O [Example 151, 6-[5-[(4S)-4-aminospiro[4,6-dihydrocyclopenta[d]thiazole-5,4′-piperidin]-1′-yl]pyrazin-2-yl]sulfanyl-5-chloro-3-(2-methoxyethyl)quinazolin-4-one]	> 8.52	> 7.35
CC(C)(O)Cn1cnc2ccc(Sc3cnc(N4CCC5(CC4)Cc4scnc4[C@@H]5N)cn3)c(Cl)c2c1=O [Example 152, 6-[5-[(4R)-4-aminospiro[4,6-dihydrocyclopenta[d]thiazole-5,4′-piperidin]-1′-yl]pyrazin-2-yl]sulfanyl-5-chloro-3-(2-hydroxy-2-methyl-propyl)quinazolin-4-one]	7.00 to 8.52	5.82 to 7.35
COCCn1cnc2ccc(Sc3cnc(N4CCC5(CC4)CO[C@@H](C)[C@H]5N)c(CO)n3)c(Cl)c2c1=O [Example 153, 6-[5-[(3S,4S)-4-amino-3-methyl-2-oxa-8-azaspiro[4.5]decan-8-yl]-6-(hydroxymethyl)pyrazin-2-yl]sulfanyl-5-chloro-3-(2-methoxyethyl)quinazolin-4-one]	> 8.52	> 7.35
COCCn1cnc2ccc(Sc3nc(C(N)=O)c(N4CCC5(CC4)CO[C@@H](C)[C@H]5N)nc3N)c(Cl)c2c1=O [Example 154, 5-amino-3-[(3S,4S)-4-amino-3-methyl-2-oxa-8-azaspiro[4.5]decan-8-yl]-6-[5-chloro-3-(2-methoxyethyl)-4-oxo-quinazolin-6-yl]sulfanyl-pyrazine-2-carboxamide]	7.00 to 8.52	5.82 to 7.35
COCCn1cnc2ccc(Sc3nc(C(C)=O)c(N4CCC5(CC4)CO[C@@H](C)[C@H]5N)nc3N)c(Cl)c2c1=O [Example 155]	7.00 to 8.52	< 5.82
COCCn1cnc2ccc(Sc3cnc(N4CCC5(CC4)CO[C@@H](C)[C@H]5N)cn3)c(F)c2c1=O [Example 156]	7.00 to 8.52	> 7.35
COCCn1cnc2ccc(Sc3cnc(N4CCC5(CC4)Cc4nc(Cl)sc4[C@@H]5N)cn3)c(Cl)c2c1=O [Example 157, 6-[5-[(6R)-6-amino-2-chloro-spiro[4,6-dihydrocyclopenta[d]thiazole-5,4′-piperidin]-1′-yl]pyrazin-2-yl]sulfanyl-5-chloro-3-(2-methoxyethyl)quinazolin-4-one]	7.00 to 8.52	5.82 to 7.35
COCCn1cnc2ccc(Sc3cnc(N4CCC5(CC4)Cc4ccc(OC)cc4[C@H]5N)cn3)c(Cl)c2c1=O [Example 158, 6-[5-[(1S)-1-amino-6-methoxy-spiro[indane-2,4′-piperidin]-1′-yl]pyrazin-2-yl]sulfanyl-5-chloro-3-(2-methoxyethyl)quinazolin-4-one]	> 8.52	> 7.35
CC(C)(O)Cn1cnc2ccc(Sc3cnc(N4CCC5(CC4)Cc4ncccc4[C@@H]5N)cn3)c(Cl)c2c1=O [Example 159, 6-[5-[(5R)-5-aminospiro[5,7-dihydrocyclopenta[b]pyridine-6,4′-piperidin]-1′-yl]pyrazin-2-yl]sulfanyl-5-chloro-3-(2-hydroxy-2-methylpropyl)quinazolin-4-one]	> 8.52	> 7.35
CC(C)(O)Cn1cnc2ccc(Sc3cnc(N4CCC5(CC4)Cc4scnc4[C@H]5N)cn3)c(Cl)c2c1=O [Example 160, 6-[5-[(4S)-4-amino[4,6-dihydrocyclopenta[d]thiazole-5,4′-piperidin]-1′-yl]pyrazin-2-yl]sulfanyl-5-chloro-3-(2-hydroxy-2-methyl-propyl)quinazolin-4-one]	> 8.52	> 7.35
COCCn1cnc2ccc(Sc3cnc(N4CCC5(CC4)Cc4nc(Cl)sc4[C@H]5N)cn3)c(Cl)c2c1=O [Example 161, 6-[5-[(6S)-6-amino-2-chloro-spiro[4,6-dihydrocyclopenta[d]thiazole-5,4′-piperidin]-1′-yl]pyrazin-2-yl]sulfanyl-5-chloro-3-(2-methoxyethyl)quinazolin-4-one]	> 8.52	> 7.35
COCCn1cnc2ccc(Sc3cnc(N4CCC5(CC4)Cc4ccc(O)cc4[C@H]5N)cn3)c(Cl)c2c1=O [Example 163, (S)-6-((5-(1-amino-6-hydroxy-1,3-dihydrospiro(indene-2,4′-piperidin]-1′-yl)pyrazin-2-yl)thio)-5-chloro-3-(2-methoxyethyl)quinazolin-4(31-1)-one]	> 8.52	> 7.35
CC(C)(O)Cn1cnc2ccc(Sc3ncc(N4CCC5(CC4)Cc4scnc4[C@H]5N)nc3N)c(Cl)c2c1=O [Example 165, (S)-6-((3-amino-5-(4-amino-4,6-dihydrospiro[cyclopenta[d]thiazole-5,4′-piperidin]-1′-yl)pyrazin-2-yl)thio)-5-chloro-3-(2-hydroxy-2-methylpropyl)quinazolin-4(3H)-one]	> 8.52	> 7.35
CC(C)(O)Cn1cnc2ccc(Sc3ncc(N4CCC5(CC4)Cc4ncsc4[C@H]5N)nc3N)c(Cl)c2c1=O [Example 166, (S)-6-((3-amino-5-(6-amino-4,6-dihydrospiro[cyclopenta[d]thiazole-5,4′-piperidin]-1′-yl)pyrazin-2-yl)thio)-5-chloro-3-(2-hydroxy-2-methylpropyl)quinazolin-4(3H)-one]	> 8.52	> 7.35
COCCn1cnc2ccc(Sc3ncc(N4CCC5(CC4)Cc4scnc4[C@H]5N)nc3N)c(Cl)c2c1=O [Example 167, (S)-6-((3-amino-5-(4-amino-4,6-dihydrospiro[cyclopenta[d]thiazole-5,4′-piperidin]-1′-yl)pyrazin-2-yl)thio)-5-chloro-3-(2-methoxyethyl)quinazolin-4(3H)-one]	> 8.52	5.82 to 7.35
COCCn1cnc2ccc(Sc3cnc(N4CCC5(CC4)Cc4ncccc4[C@H]5N)c(CO)n3)c(Cl)c2c1=O [Example 168, (S)-6-((5-(5-amino-5,7-dihydrospiro[cyclopenta[b]pyridine-6,4′-piperidin]-1′-yl)-6-(hydroxymethyl)pyrazin-2-yl)thio)-5-chloro-3-(2-methoxyethyl)quinazolin-4(3H)-one]	> 8.52	> 7.35
COCCn1cnc2ccc(Sc3cnc(N4CCC5(CC4)Cc4ncsc4[C@H]5N)c(CO)n3)c(Cl)c2c1=O [Example 169, (S)-6-((5-(6-amino-4,6-dihydrospiro[yclopenta[d]thiazole-5,4′-piperidin]-1′-yl)-6-(hydroxymethyl)pyrazin-2-yl)thio)-5-chloro-3-(2-methoxyethyl)quinazolin-4(3H)-one]	> 8.52	> 7.35
